PMC11435183, “Enzymatic Characterization of SpPAL Genes in S. polyrhiza and Overexpression of the SpPAL3” (Plants, 2024)

Key:
Format in all cases: biochemical, Spirodela polyrhiza
SpPAL2 [1] = tested on: T1, SpPAL2; assay: Michaelis-Menten kinetics, deamination to trans-cinnamic acid; conditions: 0-20 mM L-Phe; pH and temperature of the kinetic runs not clearly stated (activity assay: 100 mM Tris-HCl pH 8.0, 50 °C)
T1 construct: full-length ORF (2277 bp); about 83 kDa; homotetramer only predicted
From the text: Michaelis-Menten kinetics, deamination to trans-cinnamic acid on SpPAL2

SpPAL1 [2] = tested on: T2, SpPAL1; assay: as above; conditions: 0-20 mM L-Phe; pH and temperature of the kinetic runs not clearly stated (activity assay: 100 mM Tris-HCl pH 8.0, 50 °C)
T2 construct: full-length ORF (2172 bp); about 78 kDa; homotetramer only predicted
From the text: Michaelis-Menten kinetics, deamination to trans-cinnamic acid on SpPAL1

SpPAL3 = tested on: T3, SpPAL3; assay: as above; conditions: 0-20 mM L-Phe; pH and temperature of the kinetic runs not clearly stated (activity assay: 100 mM Tris-HCl pH 8.0, 50 °C)
T3 construct: about 79 kDa; homotetramer only predicted
From the text: Michaelis-Menten kinetics, deamination to trans-cinnamic acid on SpPAL3

SpPAL2 [3] = tested on: T1, SpPAL2; assay: Michaelis-Menten kinetics, deamination to p-coumaric acid; conditions: 0.1-2.5 mM L-Tyr; pH and temperature of the kinetic runs not clearly stated (activity assay: 100 mM Tris-HCl pH 8.0, 50 °C); Km lies above the tested concentration range
From the text: Michaelis-Menten kinetics, deamination to p-coumaric acid on SpPAL2

SpPAL1 [4] = tested on: T2, SpPAL1; assay: as above; conditions: 0.1-2.5 mM L-Tyr; pH and temperature of the kinetic runs not clearly stated (activity assay: 100 mM Tris-HCl pH 8.0, 50 °C)
From the text: Michaelis-Menten kinetics, deamination to p-coumaric acid on SpPAL1

| Km (SpPAL2 [1]) [µM] | Km (SpPAL1 [2]) [µM] | Km (SpPAL3) [µM] | SMILES | Km (SpPAL2 [3]) [µM] | Km (SpPAL1 [4]) [µM] |
| --- | --- | --- | --- | --- | --- |
| 345 | 252 | 632 | N[C@@H](Cc1ccccc1)C(=O)O [L-Phe] | – | – |
| – | – | – | N[C@@H](Cc1ccc(O)cc1)C(=O)O [L-Tyr] | 8720 | 1290 |
